This is an account of results in patent publication US10874669B2 (WAYNE STATE UNIVERSITY, priority 2018, dated 2020).

In general, EC50 refers to the midpoint of the concentration-response curve. For orientation: Emax means the greatest response seen or fitted, relative to the assay's reference.

Read-outs that look alike come from different tables or passages of the source.

The subject of data set [1] is PC12 cells. The experiment in a line: MTT viability of PC12 cells treated with seeded α-syn aggregates. Type of data set: cell-based, rat. The settings on record: 30D samples, 24 h treatment, compared to control (seeded α-syn alone 37%). The procedure:
When PC12 cells were treated with the aggregates formed by 0.5% PFFs seeding at 30D, it was observed that the viability went down to 37% when compared to control. […] The viability values of PC12 cells when treated with α-syn seeded samples in the presence of (−)-91b and (−)-95a were 71% and 72% at 30D when compared to control (FIG. 5B).
Further, the cytotoxicity of the aggregates formed was evaluated in PC12 cells. Briefly, PC12 cells were treated with α-syn aggregates such that its concentration is 10 μM. 24 h following treatments, viability was measured by MTT assay as described previously.

Another data set addresses human DA D2 receptors (Homo sapiens (Human), UniProt P14416). As to the kind of experiment: [35S]GTPγS binding stimulation, human D2 receptors in CHO cells. The data set is classed as biochemical. Conditions: for Emax: compared with maximum stimulation by full agonist DA. For orientation: GTPγS is a poorly hydrolysed GTP analogue; its binding reports G protein activation.

In data set [2] the test system is PC12 cells. As to the kind of experiment: DCFDA fluorescence assay of intracellular ROS induced by 6-OHDA. The settings on record: 20 μM, 24 h pretreatment, then 75 μM 6-OHDA 1 h. The data set is classed as cell-based, rat. As for the experimental part: Experimental detection of reactive oxygen species (ROS) produced by 6-OHDA was carried out by DCFDA assay. 6-OHDA, a well known neurotoxin, produces oxidative stress similar to what is observed in PD and the mechanism of neurotoxicity of 6-OHDA takes place via its auto-oxidation and subsequent generation of hydrogen peroxide. DCFDA is a non-fluorogenic dye but in the presence of ROS, it is oxidized to produce DCF which produces florescence. We have previously shown that 6-OHDA causes cell death in a dose-dependent manner. We chose 75 μM 6-OHDA as we have shown that this dose induces 40-50% cell death. […] However, the test compounds could dose dependently decrease the production of ROS induced by 6-OHDA (75 μM) in PC12 cells. In this regard, highest dose of all the three compounds was the most efficacious in producing significant antioxidant effect.
PC12 cells (ATCC CRL1721.1, Manassas, Va., USA), a rat adrenal pheochromocytoma cell line, were cultured in T-75 flasks (Greiner Bio One, Frickenhausen, Germany) and maintained in RPMI 1640 medium supplemented with 10% heat inactivated horse serum, 5% fetal bovine sérum, 100 U/ml penicillin, and 100 μg/mL streptomycin at 37° C. in 95% air/5% CO2. […]
PC12 cells were plated at 30,000 cells/well density in 100 μL media in 96-well black plates and incubated at 37° C. under 5% CO2 atmosphere for 24 h. […] After incubation for 1 h, the fluorescence was measured using spectrophotometer fluorescence generated microplate reader (Biotek Epoch, Winooski, Vt., USA) at excitation 497 nm and emission at 527 nm. […] The specific fluorescence emission was calculated after subtraction of the DCFDA untreated control cells from the DCFDA treated cells for both the background and 1 h treatment conditions. This was followed by the division of the 1 h treatment data by the background activity which was determined from vials before treatment with 6-OHDA, to derive the final data point.

human DA D2 receptors, sequence (P14416 whole entry): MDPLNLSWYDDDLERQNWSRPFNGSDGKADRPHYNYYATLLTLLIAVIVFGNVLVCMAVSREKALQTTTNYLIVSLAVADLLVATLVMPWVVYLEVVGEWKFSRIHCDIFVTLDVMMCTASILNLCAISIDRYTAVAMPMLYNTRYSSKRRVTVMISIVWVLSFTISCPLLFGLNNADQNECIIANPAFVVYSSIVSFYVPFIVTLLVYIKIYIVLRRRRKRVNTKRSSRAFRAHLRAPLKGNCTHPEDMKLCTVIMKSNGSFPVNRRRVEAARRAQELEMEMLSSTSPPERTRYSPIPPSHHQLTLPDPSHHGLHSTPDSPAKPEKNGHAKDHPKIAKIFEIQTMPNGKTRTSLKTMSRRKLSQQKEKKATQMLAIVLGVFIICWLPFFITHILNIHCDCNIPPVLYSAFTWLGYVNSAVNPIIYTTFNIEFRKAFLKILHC

Take `CCCN(CCN1CCN(c2ccc3[nH]c4ccccc4c3c2)CC1)[C@H]1CCc2nc(N)sc2C1` [(−)-91b, (S)—N^6-(2-(4-(9H-carbazol-3-yl)piperazin-1-yl)ethyl)-N^6-propyl-4,5,6,7-tetrahydrobenzo[d]thiazole-2,6-diamine]: in the data set on PC12 cells [1], the “viability of PC12 cells treated with α-syn seeded samples formed with compound” value stood at 71%. For the same compound, the EC50 on human DA D2 receptors (CHO cells, read-out: EC50 (GTPγS), D2) amounted to 0.0487 µM. The same compound yielded an Emax at human DA D2 receptors of 87 to 93%. For the same compound, the “reduction in ROS” value with PC12 cells [2] is recorded as 76%.

With `CCCN(CCN1CCN(c2ccc3c(c2)[nH]c2ccccc23)CC1)[C@H]1CCc2c(O)cccc2C1` [Compound (−)-95a, (S)-6-((2-(4-(9H-carbazol-2-yl)piperazin-1-yl)ethyl)(propyl)amino)-5,6,7,8-tetrahydronaphthalen-1-ol], the “viability of PC12 cells treated with α-syn seeded samples formed with compound” value in the data set on PC12 cells [1] was determined as 72%. At human DA D2 receptors, this compound came in with an EC50 of 0.00087 µM and an Emax of 85 to 92%. Also, in the data set with PC12 cells [2], the “reduction in ROS” value is on record as 93%.
